Reference: patent US6861409B2, “Growth hormone secretagogues” (Zentaris AG, priority 2000, dated 2005)
Square brackets hold non-standard residues; d marks the D form. Peptide text beside a SMILES is read from it. dTrp(2-Me) = Cc1[nH]c2ccccc2c1C[C@@H](N)C(=O)O

Tested on: plasma GH concentrations
Assay: Growth hormone releasing activity in the infant rat (plasma GH by RIA)
Assay type: in vivo, Sprague Dawley rats
Settings: male 10-day-old rats, 300 μg/kg subcutaneously, plasma 15 min later
Procedure: Male 10-day-old Sprague Dawley rats, about 25 g body weight were used.
One hour before the experiments, pups were separated from their respective dams and were divided randomly into groups of eight each.
Pups were acutely challenged subcutaneously with 100 μl of solvent (DMSO, final dilution 1:300 in physiological saline), hexarelin (Tyr-Ala-His-D-Mrp-Ala-Trp-D-Phe-Lys-NH2, used as a reference drug), or new compounds (300 μg/kg) and killed by decapitation 15 min later.
Trunk blood was collected and centrifuged immediately. Plasma samples were stored at −20° C. until assayed for the determination of plasma GH concentrations.
Growth hormone concentrations in plasma were measured by RIA using materials provided by the National Institute of Diabetes, Digestive and Kidney Diseases (NIDDK) of the National Institute of Health U.S.A.
Values were expressed in terms of the NIDDK-rat-GH-RP-2 standard (potency 21 U/mg) as ng/ml of plasma.
The minimum detectable value of rat GH was about 1.0 ng/ml, and intraassay variability was about 6%.

For `CC(C)(N)C(=O)NC(Cc1c[nH]c2ccccc12)C(=O)NC(CC1CNc2ccccc21)NC=O` (racemic) [Example 48, H-Aib-(D)-Trp-(D)-3(R/S)-Dht-formyl], the GH (Table 6 test series) was 17.49 ± 2.40 ng/mL.

Work on `CNC(C)(C)C(=O)NC(Cc1c[nH]c2ccccc12)C(=O)NC(CC1CNc2ccccc21)NC(C)=O` (racemic) [Example 50, N(Me)-Aib-(D)-Trp-(D)-3(R/S)-gDht-acetyl] yielded a GH (Table 6 test series) of 11.17 ± 1.35 ng/mL.

Work on `CNC(C)(C)C(=O)NC(CC1CNc2ccccc21)C(=O)NC(Cc1c[nH]c2ccccc12)NC(C)=O` (racemic) [Example 51, N(Me)-Aib-(D)-3(R/S)-Dht-(D)-gTrp-acetyl] yielded a GH (Table 6 test series) of 19.38 ± 4.16 ng/mL.

Work on `CNC(C)(C)C(=O)NC(Cc1c[nH]c2ccccc12)C(=O)NC(Cc1c[nH]c2ccccc12)NC=O` [Example 3, N-Me-Aib-D-Trp-D-gTrp-CHO] yielded a GH (Table 2 test series) of 86.6 ± 12.6 ng/mL.

With `CC(=O)NC(Cc1c[nH]c2ccccc12)NC(=O)C(Cc1c[nH]c2ccccc12)NC(=O)C(C)(C)N` [Example 4, H-Aib-D-Trp-D-gTrp-C(O)CH3] the GH (Table 2 test series) was 104.7 ± 13.5 ng/mL.

`CNC(C)(C)C(=O)N[C@H](Cc1c[nH]c2ccccc12)C(=O)N[C@H](Cc1c[nH]c2ccccc12)NC(C)=O` [Example 5, N-Me-Aib-D-Trp-D-gTrp-C(O)CH3] gave a GH (Table 2 test series) of 175.5 ± 37.2 ng/mL.

`O=CNC(Cc1c[nH]c2ccccc12)NC(=O)C(Cc1c[nH]c2ccccc12)NC(=O)C1CCNCC1` [Example 8, Isonipecotyl-D-Trp-D-gTrp-CHO] was tested, and the GH (Table 3 test series) was 94.2 ± 8.6 ng/mL.

`CC(=O)NC(Cc1c[nH]c2ccccc12)NC(=O)C(Cc1c[nH]c2ccccc12)NC(=O)C1CCNCC1` [Example 9, Isonipecotyl-D-Trp-D-gTrp-C(O)CH3] showed a GH (Table 3 test series) of 61.2 ± 10.8 ng/mL.

`CC(C)(N)C(=O)NC(Cc1c[nH]c2ccccc12)C(=O)NC(Cc1c[nH]c2ccccc12)NC=O` (centres unmarked) [Example 13, H-Aib-(D)-Trp-gTrp-CHO] gave a GH (Table 1 test series) of 58 ± 6.3 ng/mL.

Compound `CCC(=O)NC(Cc1c[nH]c2ccccc12)NC(=O)C(Cc1c[nH]c2ccccc12)NC(=O)C(C)(C)N` [Example 19, Aib-D-Trp-gTrp-CO—CH2—CH3] has a GH (Table 3 test series) of 79.8 ± 22.4 ng/mL.

Work on `CC(C)(N)C(=O)NC(Cc1c[nH]c2ccccc12)C(=O)NC(Cc1c[nH]c2ccccc12)NC(=O)C1CCNCC1` [Example 22, Aib-D-Trp-gTrp-CO-piperidin-4-yl] yielded a GH (Table 3 test series) of 153.6 ± 30.6 ng/mL.

In the case of `CNC(C)(C)C(=O)NC(Cc1c[nH]c2ccccc12)C(=O)NC(Cc1c[nH]c2ccccc12)NC(=O)C1CCNCC1` [Example 39, N-Me-Aib-D-Trp-D-gTrp-Isonipecotyl], the GH (Table 4 test series) is reported as 97.1 ± 21.0 ng/mL.

`CNC(C)(C)C(=O)N[C@H](Cc1c[nH]c2ccccc12)C(=O)N(C)[C@H](Cc1c[nH]c2ccccc12)NC(C)=O` [Example 40, N-Me-Aib-D-Trp-N-Me-D-gTrp-C(O)CH3] showed a GH (Table 4 test series) of 188.2 ± 28.5 ng/mL.

`CC(C)(N)C(=O)NC(Cc1cccc2ccccc12)C(=O)NC(Cc1cccc2ccccc12)NC=O` (centres unmarked) [Example 42, H-Aib-(D)-1-Nal-g-(D)-1-Nal-formyl] gave a GH (Table 5 test series) of 25.05 ± 06.00 ng/mL.

For `CC(C)(N)C(=O)NC(Cc1ccc2ccccc2c1)C(=O)NC(Cc1ccc2ccccc2c1)NC=O` (centres unmarked) [Example 43, H-Aib-(D)-2-Nal-g-(D)-2-Nal-formyl], the GH (Table 5 test series) was 37.33 ± 19.74 ng/mL.

`CC(C)(N)C(=O)NC(Cc1ccc2ccccc2c1)C(=O)NC(Cc1c[nH]c2ccccc12)NC=O` (centres unmarked) [Example 45, H-Aib-(D)-2-Nal-(D)-gTrp-formyl] gave a GH (Table 5 test series) of 13.91 ± 03.87 ng/mL.

In the case of `CC(C)(N)C(=O)N[C@H](Cc1c[nH]c2ccccc12)C(=O)NC(Cc1cccc2ccccc12)NC=O` (some centres unmarked) [Example 46, H-Aib-(D)-Trp-g-(D)-1-Nal-formyl], the GH (Table 5 test series) is reported as 8.26 ± 01.09 ng/mL.

`CC(C)(N)C(=O)NC(Cc1c[nH]c2ccccc12)C(=O)NC(Cc1ccc2ccccc2c1)NC=O` [Example 47, H-Aib-D-Trp-g-D-2-Nal-formyl] showed a GH (Table 5 test series) of 9.04 ± 04.03 ng/mL.

With `CN(C)C(C)(C)C(=O)NC(Cc1c[nH]c2ccccc12)C(=O)NC(Cc1c[nH]c2ccccc12)NC=O` (centres unmarked) [Example 52, N(Me)2-Aib-(D)-Trp-(D)-gTrp-formyl] the GH (Table 7 test series) was 121.43 ± 29 ng/mL.

With `CC(=O)NC(Cc1c[nH]c2ccccc12)NC(=O)C(Cc1c[nH]c2ccccc12)NC(=O)C(C)(C)N(C)C` (centres unmarked) [Example 53, N(Me)2-Aib-(D)-Trp-(D)-gTrp-acetyl] the GH (Table 7 test series) was 26.80 ± 5.64 ng/mL.

With `NC1(C(=O)NC(Cc2c[nH]c3ccccc23)C(=O)NC(Cc2c[nH]c3ccccc23)NC=O)CC1` (centres unmarked) [Example 54, H-Acc^3-(D)-Trp-(D)-gTrp-formyl] the GH (Table 9 test series) was 7.89 ± 3.20 ng/mL.

Compound `NC1(C(=O)NC(Cc2c[nH]c3ccccc23)C(=O)NC(Cc2c[nH]c3ccccc23)NC=O)CCCC1` (centres unmarked) [Example 55, H-Acc^5-(D)-Trp-(D)-gTrp-formyl] has a GH (Table 9 test series) of 11.46 ± 1.18 ng/mL.

With `NC1(C(=O)NC(Cc2c[nH]c3ccccc23)C(=O)NC(Cc2c[nH]c3ccccc23)NC=O)CCCCC1` (centres unmarked) [Example 56, H-Acc^6-(D)-Trp-(D)-gTrp-formyl] the GH (Table 9 test series) was 8.49 ± 0.40 ng/mL.

Compound `CCCC(N)(CCC)C(=O)NC(Cc1c[nH]c2ccccc12)C(=O)NC(Cc1c[nH]c2ccccc12)NC=O` (centres unmarked) [Example 57, H-Dpg-(D)-Trp-(D)-gTrp-formyl] has a GH (Table 9 test series) of 18.38 ± 2.88 ng/mL.

With `CCNC(=O)NC(Cc1c[nH]c2ccccc12)NC(=O)C(Cc1c[nH]c2ccccc12)NC(=O)C(C)(C)N` (centres unmarked) [Example 58, H-Aib-(D)-Trp-(D)-gTrp-C(O)NHCH2CH3] the GH (Table 10 test series) was 376.48 ± 43.24 ng/mL.

Work on `CCNC(=O)NC(Cc1c[nH]c2ccccc12)NC(=O)C(Cc1c[nH]c2ccccc12)NC(=O)C(C)(C)NC` (centres unmarked) [Example 59, N-Me-Aib-(D)-Trp-(D)-gTrp-C(O)NHCH2CH3] yielded a GH (Table 10 test series) of 179.53 ± 24.65 ng/mL.

For `CC(C)(N)C(=O)NC(C)(Cc1c[nH]c2ccccc12)C(=O)NC(Cc1c[nH]c2ccccc12)NC=O` [Example 60, H-Aib-(R)—Me-Trp-(D)-gTrp-formyl], the GH (Table 8 test series) was 21.02 ± 3.43 ng/mL.

Compound `CC(Cc1c[nH]c2ccccc12)(NC=O)NC(=O)C(Cc1c[nH]c2ccccc12)NC(=O)C(C)(C)N` [Example 61, H-Aib-(D)-Trp-(R)-Me-gTrp-formyl] has a GH (Table 8 test series) of 152.28 ± 43.76 ng/mL.

Compound `CNC(C)(C)C(=O)NC(Cc1c[nH]c2ccccc12)C(=O)NC(C)(Cc1c[nH]c2ccccc12)NC(C)=O` [Example 62, H-Me-Aib-(D)-Trp-(R)-Me-gTrp-acetyl] has a GH (Table 8 test series) of 171.78 ± 10.32 ng/mL.

For `Cc1[nH]c2ccccc2c1C[C@@H](NC(=O)[C@@H](N)Cc1cnc[nH]1)C(=O)N[C@@H](C)C(=O)N[C@@H](Cc1c[nH]c2ccccc12)C(=O)N[C@H](Cc1ccccc1)C(=O)N[C@@H](CCCCN)C(N)=O` [HEXARELIN, Tyr-Ala-His-D-Mrp-Ala-Trp-D-Phe-Lys-NH2, reference compound] (H-H[dTrp(2-Me)]AW[dF]K-NH2), the GH (Table 1 test series) was 202 ± 32.7 ng/mL, the GH (Table 2 test series) was 134.5 ± 27.2 ng/mL and the GH (Table 3 test series) was 114.7 ± 8.4 ng/mL. For the same compound, the GH (Table 4 test series) was 114.5 ± 12.9 ng/mL, the GH (Table 5 test series) was 276.01 ± 23.5 ng/mL and the GH (Table 6 test series) was 91.61 ± 4.09 ng/mL. It also gave a GH (Table 7 test series) of 172.5 ± 38.53 ng/mL, a GH (Table 8 test series) of 172.5 ± 38.53 ng/mL and a GH (Table 9 test series) of 89.91 ± 3.04 ng/mL. For the same compound, the GH (Table 10 test series) was 172.5 ± 38.53 ng/mL.

With “H-Aib-(D)-1-Nal-(D)-gTrp-formyl [Example 44]” the GH (Table 5 test series) was 15.04 ± 03.30 ng/mL.

“H-Aib-(D)-3(R/S)-Dht-g-(D)-Trp-formyl [Example 49]” gave a GH (Table 6 test series) of 24.35 ± 4.85 ng/mL.

Compound “H-Aib-D-Trp-N-Me-D-gTip-C(O)CH3 [Example 41]” has a GH (Table 4 test series) of 75.4 ± 15.0 ng/mL.

Compound Pip-D-Trp-D-gTrp-C(O)CH3 [Example 7] has a GH (Table 3 test series) of 53.1 ± 6.6 ng/mL.

Pip-D-Trp-D-gTrp-CHO [Example 6] was tested, and the GH (Table 3 test series) was 109.7 ± 10.1 ng/mL.
